Inhibitory activity, inhibition and EC50 data for 22 compounds are collected here from US5230998A, “Method for the prescreening of drugs targeted to the V3 hypervariable loop of the HIV-1 envelope glycoprotein gp 120” (priority 1991, dated 1993).

Converted amounts (≈) assume the structure as drawn.

The target of assay [1] is T1, HIV-1 gp120 V3 hypervariable loop (Human immunodeficiency virus type 1 group M subtype B, UniProt P03375). For Inhibitory activity: key: Chemicals with inhibitory activity are indicated by +.
T1 construct: Polystyrene plates coated with recombinant gp120 and gp160, respectively; purchased American Bio-Technologies, Inc., Cambridge, Mass; host or cells: baculovirus expression system
Nature of the assay: biochemical. It is filed as binding. As to conditions: for Inhibitory activity: Table 1, reaction between HIV-1 gp120 and anti-V3 loop antibodies; for inhibition at 50 µg/mL: read-out: percentage of inhibition. Here is the method:
Wells of 96 well polystyrene plates (Immulon 2, Dynatech Laboratories, Inc., Chantilly, Va.) were coated with synthetic peptides (200 μl; 20μg/ml in 0.1 M Tris-HCl, pH 8.8) overnight at 20° C. The peptides were from the sequence of HIV-1, clone BH 10 envelope glycoproteins gp120 and gp41 (Neurath, A. R., Strick, N., and Lee, E. Y. S. (1990), "B-cell Epitope Mapping of Human Immunodeficiency virus (HIV-1) Envelope Glycoprotein with Long (19 to 36-residue) Synthetic Peptides", J. Gen. Virol., 71., 85-95) and from V3 hypervariable loops of 21 distinct HIV-1 isolates (clones) Neurath, A. R., and Strick, N., (1990), "Confronting the Hypervariability of an Immunodominant Epitope Eliciting Virus Neutralizing Antibodies from the Envelope Glycoprotein of the Human Immunodeficiency Virus Type 1 (HIV-1)", Molec. Immunol., 27, 539-549. The latter peptides corresponded to full-length V3 loops generated by disulfide bonds between N- and C- terminal cysteine residues. After washing with 0.14 M NaCl, 0.01 M Tris, 0.02% NaN3 (TS), the wells were postcoated with a mixture of bovine serum albumin (BSA) and gelatine (10 and 2.5 mg/ml, respectively) in TS. BSA was omitted from the postcoating solution for RIA tests in which antibodies to ATA were used. Polystyrene plates coated with recombinant gp120 and gp160, respectively, (500 ng/well; from American Bio-Technologies, Inc., Cambridge, Mass. and MicroGeneSys, Inc., West Haven, Conn., respectively) were also used for RIA and ELISA tests.
To define sites on gp120/gp41 reacting with ATA, the inhibitory effect of this compound was studied by RIA tests using gp120- and gp160-coated wells, respectively, and antisera (final dilutions 1:150) against synthetic peptides from the entire sequence of gp120/gp41 of HIV-1 BH 10. The preparation and biological properties of these antisera were described elsewhere (Neurath et al., (1990), J. Gen. Virol., 71, 85-95). Each of the antisera was diluted in a mixture of fetal bovine serum and goat serum (9:1) containing 0.1% Tween 20, adjusted to pH 8. ATA (final concentration 50 μg/ml) was added in one set of assays, but was omitted from a parallel set. After incubation overnight at 25° C., the plates were washed with TS. Attached rabbit IgG was detected using ^125 I-labeled anti-rabbit IgG, as described before (Neurath et al., 1990, J. Gen. Virol., 71, 85-95). Similarly, the inhibitory effect of ATA on the reaction of peptides derived from gp120/gp41 and of peptides derived from V3 hypervariable loops from gp120 of distinct HIV-1 isolates with the respective homologous anti-peptide antisera was studied. In the latter case, antisera were diluted 1:1,000 for the assays.
The inhibitory effect of ATA and of other compounds on the reaction between antibodies with predetermined specificity and gp120 (or synthetic peptides derived from it) was determined from the formula: [formula] An analogous formula was used to calculate the percentage of inhibition from optical density readings resulting from ELISA tests.
Chemicals other than ATA were screened for inhibitory activity essentially as described above. […] Chemicals with inhibitory activity established by the respective immunoassays were screened further for antiviral activity.
Commercially available ATA is a mixture of monomers and polymers of distinct molecular masses (Gonzalez et al., (1979) Biochem. Biophys. Acta, 562, 534-545); Cushman et al., (1991), J. Chem., 34, 329-337). The monomers [molecular mass (M.W.)=422.4 daltons] were separated from the polymers. ATA (20 mg/ml in the form of free acid neutralized with 0.4 M NaOH) was dialyzed against H2 O in a dialysis membrane with a molecular mass cutoff of 500 daltons.

The subject of the next assay is HIV-1. Nature of the assay: Antiviral activity: inhibition of P24 production in MT-2 cells. The assay is classed as cell-based, HIV-1 IIIB. The arrangement: inhibition: dose or concentration left out as unconfirmed. As to conditions: Human immunodeficiency virus 1, MT2, Table 1; for EC50: read-out: EC50 (concentration at which the production of P24 was reduced to 50% of that detected in control cultures); for inhibition: read-out: percentage of inhibition of P24 nucleoprotein production. Here is the method: All chemicals were tested at serial two-fold dilutions (1.25-80 μg/ml, prepared from a stock solution containing 10 mg/ml in dimethylsulfoxide). The chemicals were obtained from Aldrich, Milwaukee, Wis. or were synthesized. Their inhibitory activity was determined by two distinct methods, based on inhibition of synthesis of core protein P24 and on protection by the chemicals of cells against the cytopathic effect of HIV-1 (colorimetric method) respectively.
The chemicals were serially diluted in RPMI 1640 medium without phenol red (GIBCO, Grand Island, N.Y.) containing 10% fetal calf serum (FCS). Aliquots of the diluted solutions were added to wells of 96 well plates and mixed with an equal volume of diluted HIV-1 [multiplicity of infection (MOI) =0.0045]. After incubation for 1 hour at 37° C., 25 μl of polybrene (1 μg/ml) treated MT-2 cells (Harada, S., Koyanagi, Y., Yamamoto, N., (1985), "Infection of HTLV-III/LAV in HTLV-I-carrying Cells MT-2 and MT-4 and Application in a Plaque Assay", Science, 229, 563-566), (5,000 cells/well) were added. The mixture was incubated for 1 hour at 37° C. and the volume was adjusted with RPMI 1640 medium with 10% FCS to 200 μl. On the fourth day after incubation at 37° C., 100 μl of culture supernatants were collected from each well and equal volumes of fresh medium were added to the wells. The supernatants were assayed for P24 using a kit from Coulter Immunology (Hialeah, Fla.). On the sixth day, an indicator XTT tetrazolium dye (1 mg/ml; 50 μl/well; PolySciences, Inc., Warrington, Penna.) was added to the cells. After 4 hours, intracellular formazan was determined colorimetrically at 450 nm.
^c Chemicals with inhibitory activity in ELISA (RIA) tests were teste
^d EC50 = concentration at which the production of P24 was […]

In the case of `O=C(O)CC(c1ccccc1)(c1ccccc1)c1ccccc1` [compound 2], in assay [1], the Inhibitory activity entry is listed as “+” and the inhibition (in general, how much of the control response was suppressed) at 50 µg/mL amounted to 27%.

With `c1ccc(CNc2ccccc2)cc1` [compound 42], in assay [1], the Inhibitory activity entry is reported as “+” and the inhibition at 50 µg/mL came to 28.8%.

Consider `Nc1ccccc1-c1ccccc1` [compound 50], for which, in assay [1], the Inhibitory activity result is reported as “+” and the inhibition at 50 µg/mL was 70.5%.

As to `Nc1ccc2c(c1)Cc1cc(Br)ccc1-2` [compound 63], in assay [1], the Inhibitory activity result is reported as “+” and the inhibition at 50 µg/mL is 37.1%. For the same compound, in the assay on HIV-1, the EC50 came out at 68 µg/mL (≈ 261 µM) and the inhibition came to 19%.

Turning to `Nc1ccc2c3c(cccc13)-c1ccccc1-2` [compound 65], in assay [1], the Inhibitory activity result is “+” and the inhibition at 50 µg/mL was 27.4%. In addition, in the assay on HIV-1, the EC50 came to 3 µg/mL (≈ 13.8 µM) and the inhibition is 100%.

`c1cnc2c(c1)CCCCCCCCCC2` [compound 67]: in assay [1], the Inhibitory activity entry is “+” and the inhibition at 50 µg/mL was found to be 36.8%. Further, in the assay on HIV-1, the EC50 worked out at 37 µg/mL (≈ 170 µM) and the inhibition came out at 53%.

Take `O=Cc1ccc(-c2ccccc2)cc1` [compound 93]: in assay [1], the Inhibitory activity entry is “+” and the inhibition at 50 µg/mL came to 21%. Also, in the assay on HIV-1, the EC50 was over 80 µg/mL and the inhibition was found to be 32%.

For `O=C1OC(=O)C2C3c4ccccc4C(c4ccccc43)C12` (centres unmarked) [compound 106], in assay [1], the Inhibitory activity entry is “+” and the inhibition at 50 µg/mL was found to be 77.5%. Further, in the assay with HIV-1, the EC50 was found to be 18 µg/mL (≈ 65.1 µM) and the inhibition stood at 82%.

Consider `O=C(O)CNC(c1ccccc1)(c1ccccc1)c1ccccc1` [compound 108], for which, in assay [1], the Inhibitory activity result is given as “+” and the inhibition at 50 µg/mL amounted to 33.5%.

For the compound `CC(C)C[C@H](NC(=O)[C@H](C)NC(=O)[C@H](CC(C)C)NC(c1ccccc1)(c1ccccc1)c1ccccc1)C(=O)O` [compound 114], in assay [1], the Inhibitory activity entry was “+” and the inhibition at 50 µg/mL is 62.1%. In addition, in the assay on HIV-1, the EC50 is over 80 µg/mL and the inhibition is 14%.

On to `O=C(O)C1=CC(=C(c2ccc(O)c(C(=O)O)c2)c2ccc(O)c(C(=O)O)c2)C=CC1=O` [compound 122], for which, in assay [1], the Inhibitory activity result is listed as “+”. Also, in the assay on HIV-1, the EC50 worked out at 12 µg/mL (≈ 28.4 µM) and the inhibition stood at 83%.

As to `O=c1cc2oc3cc(O)c(O)cc3c(-c3ccccc3)c-2cc1O` [compound 128], in assay [1], the Inhibitory activity result is recorded as “+” and the inhibition at 50 µg/mL came out at 58.6%. In addition, in the assay with HIV-1, the EC50 was 27 µg/mL (≈ 84.3 µM) and the inhibition worked out at 85%.

For `O=C(O)COc1cc2oc3cc(=O)c(OCC(=O)O)cc-3c(-c3ccccc3)c2cc1OCC(=O)O` [compound 129], in assay [1], the Inhibitory activity result is on record as “+” and the inhibition at 50 µg/mL is 56.8%. Moreover, in the assay with HIV-1, the EC50 was determined as 15 µg/mL (≈ 30.3 µM) and the inhibition is 88%.

For `CC1=C(C(=O)O)C(=O)C(C(C)(C)C)=CC1=C(c1cc(C(C)(C)C)c(O)c(C(=O)O)c1C)c1cc(C(C)(C)C)c(O)c(C(=O)O)c1C` [compound 130], in assay [1], the Inhibitory activity entry is listed as “+” and the inhibition at 50 µg/mL was 38.6%. Further, in the assay on HIV-1, the EC50 was found to be 80 µg/mL (≈ 126 µM) and the inhibition stood at 38%.

As for `O=C(O)C1=CC(I)=CC(=C(c2cc(I)cc(C(=O)O)c2O)c2cc(I)cc(C(=O)O)c2O)C1=O` [compound 131], in assay [1], the Inhibitory activity result is listed as “+” and the inhibition at 50 µg/mL stood at 74.8%. In the assay with HIV-1, the EC50 was 71 µg/mL (≈ 88.7 µM) and the inhibition is 41%.

For the compound `CC(=O)C1=CC(=C(c2ccc(O)c(C(C)=O)c2)c2ccc(O)c(C(C)=O)c2)C=CC1=O` [compound 140], in assay [1], the Inhibitory activity result was “+” and the inhibition at 50 µg/mL stood at 69.4%.

In the case of `CC1=C(CCC(=O)O)c2cc3[nH]c(cc4nc(cc5[nH]c(cc1n2)c(C(O)CO)c5C)C(C(O)CO)=C4C)c(C)c3CCC(=O)O` (centres unmarked) [compound 150], in assay [1], the Inhibitory activity entry is on record as “+” and the inhibition at 50 µg/mL turned out to be 43.3%. Further, in the assay on HIV-1, the EC50 stood at 38.2 µg/mL (≈ 60.6 µM) and the inhibition turned out to be 99%.

As to `C=CC1=C(C)c2cc3[nH]c(cc4nc(cc5[nH]c(cc1n2)c(C)c5CO)C(C)=C4CCC(=O)O)c(CCC(=O)O)c3C` [compound 152], in assay [1], the Inhibitory activity result is “+” and the inhibition at 50 µg/mL worked out at 82.6%. Further, in the assay with HIV-1, the EC50 was determined as 3 µg/mL (≈ 5.29 µM) and the inhibition came to 100%.

For the compound `C=CC1=C(C)c2cc3[nH]c(cc4nc(cc5[nH]c(cc1n2)c(C)c5C=C)C(C)=C4CCC(=O)O)c(CCC(=O)O)c3C` [compound 158], in assay [1], the Inhibitory activity result is listed as “+” and the inhibition at 50 µg/mL was determined as 55.8%. For the same compound, in the assay on HIV-1, the EC50 worked out at 1 µg/mL (≈ 1.78 µM) and the inhibition worked out at 100%.

Turning to `O=C(O)c1ccc(-c2c3nc(c(-c4ccc(C(=O)O)cc4)c4ccc([nH]4)c(-c4ccc(C(=O)O)cc4)c4nc(c(-c5ccc(C(=O)O)cc5)c5ccc2[nH]5)C=C4)C=C3)cc1` [compound 160], in assay [1], the Inhibitory activity result is recorded as “+” and the inhibition at 50 µg/mL is 84.3%. Moreover, in the assay with HIV-1, the EC50 was found to be 1.3 µg/mL (≈ 1.64 µM) and the inhibition came out at 100%.

Regarding `C1=Cc2nc1c(-c1ccncc1)c1ccc([nH]1)c(-c1ccncc1)c1nc(c(-c3ccncc3)c3ccc([nH]3)c2-c2ccncc2)C=C1` [compound 161], in assay [1], the Inhibitory activity result is listed as “+” and the inhibition at 50 µg/mL came out at 66.4%. Moreover, in the assay with HIV-1, the EC50 is over 80 µg/mL and the inhibition came out at 0%.

For `O=C(O)CCC1=C(CC(=O)O)c2cc3[nH]c(cc4nc(cc5[nH]c(cc1n2)c(CC(=O)O)c5CCC(=O)O)C(CC(=O)O)=C4CCC(=O)O)c(CC(=O)O)c3CCC(=O)O` [compound 163], in assay [1], the Inhibitory activity entry is given as “+” and the inhibition at 50 µg/mL was determined as 41.1%. In addition, in the assay on HIV-1, the EC50 was determined as 9.8 µg/mL (≈ 11.8 µM) and the inhibition was 99%.
